The values below are quoted from earlier work in paper PMC7144264 (Journal of Enzyme Inhibition and Medicinal Chemistry, 2020).

For this data set, the system named is COX. Also on record: method as in PMID 28535469. Particulars: cited from earlier work.

Consider “N-(3-chloropyridin-2-yl)−2–(4-((2-(trifluoromethyl)pyridin-4-yl)amino)phenyl)propenamide [TPA-14]”, for which the COX-inhibitory potency result is listed as “lacked COX-inhibitory potency”.
